In PMC3398407 (The Journal of Neuroscience, 2012):
Several values for one entry are separate records, joined by “and”; a condition that tells them apart may be missing. Equal values may be shown once. Read-outs that look alike come from different tables or passages of the source.

How the values were obtained:
[1] = test system: Schaffer collateral-CA1 synapse; test: Muscarinic long-term depression; conditions: 10 minutes, rat hippocampal slices
[2] = test system: striatal medium spiny neurons (MSNs); design: species or system rats
[3] = test system: mPFC layer V pyramidal neurons; test: Whole-cell voltage clamp recordings of sEPSCs in mPFC layer V pyramidal neurons; design: species or system mice; conditions: mouse mPFC slices; for effect on sEPSC frequency / interevent interval (IEI): 100 μM
[4] = target: T1, human M1 receptors (Homo sapiens, UniProt P11229); test: ERK1/2 phosphorylation; type: cell-based; conditions: hM1 CHO cells, 5 min agonist; for EC50: read-out: ERK EC50
T1 sequence (P11229 1-460): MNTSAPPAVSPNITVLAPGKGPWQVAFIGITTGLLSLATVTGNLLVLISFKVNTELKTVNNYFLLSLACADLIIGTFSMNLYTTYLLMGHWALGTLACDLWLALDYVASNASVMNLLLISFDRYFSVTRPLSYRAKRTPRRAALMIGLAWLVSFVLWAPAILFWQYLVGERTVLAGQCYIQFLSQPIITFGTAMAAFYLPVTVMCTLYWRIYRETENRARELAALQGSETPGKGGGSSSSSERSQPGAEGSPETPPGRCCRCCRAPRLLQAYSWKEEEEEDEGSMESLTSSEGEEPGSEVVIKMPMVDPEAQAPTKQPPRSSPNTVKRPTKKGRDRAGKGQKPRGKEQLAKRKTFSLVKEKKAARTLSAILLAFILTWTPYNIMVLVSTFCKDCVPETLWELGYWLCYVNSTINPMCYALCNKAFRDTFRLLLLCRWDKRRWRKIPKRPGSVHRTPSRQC

[5] = target: T2, hM1 receptors (Homo sapiens, UniProt P11229); test: β-arrestin recruitment, PathHunter Express hM1 CHO cells; type: cell-based
T2 sequence (P11229 1-460): T1 sequence (P11229 1-460)

[6] = target: T3, human M1 mAChR (Homo sapiens, UniProt P11229); test: ERK1/2 phosphorylation in TET-inducible hM1 TREx CHO cells; type: cell-based
T3 sequence (P11229 1-460): T1 sequence (P11229 1-460)

[7] = target: T3, human M1 mAChR; test: Confocal imaging of β-arrestin2-YFP recruitment in hM1 TREx CHO cells; type: cell-based; conditions: agonist 100 μM
[8] = target: T4, M1 muscarinic receptors (Homo sapiens, UniProt P11229); test: GPCRProfiler calcium assay, agonist mode, M1; type: cell-based; conditions: 10 μM compound
T4 sequence (P11229 1-460): T1 sequence (P11229 1-460)

[9] = test system: 168 G protein coupled receptors (GPCRs); test: GPCRProfiler calcium assay, agonist mode, other GPCRs; type: cell-based; conditions: 10 μM compound
[10] = target: T5, D4 dopamine receptors (Homo sapiens, UniProt P21917); test: GPCRProfiler calcium assay, D4; type: cell-based; conditions: 10 μM compound
T5 sequence (P21917 1-419): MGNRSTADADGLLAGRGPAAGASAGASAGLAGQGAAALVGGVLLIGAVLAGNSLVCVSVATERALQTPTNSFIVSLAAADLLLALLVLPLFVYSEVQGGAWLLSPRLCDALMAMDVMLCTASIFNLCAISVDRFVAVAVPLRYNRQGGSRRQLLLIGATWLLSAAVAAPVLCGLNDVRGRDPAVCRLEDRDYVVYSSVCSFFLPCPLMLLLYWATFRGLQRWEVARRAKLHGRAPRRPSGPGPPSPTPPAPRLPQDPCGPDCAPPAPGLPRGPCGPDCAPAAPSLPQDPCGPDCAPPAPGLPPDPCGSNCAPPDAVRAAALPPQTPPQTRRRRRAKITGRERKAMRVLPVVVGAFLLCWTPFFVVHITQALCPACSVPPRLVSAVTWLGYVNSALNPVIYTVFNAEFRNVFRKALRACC

[11] = target: β3-adrenergic receptors (Homo sapiens, UniProt P13945); test: GPCRProfiler calcium assay, β3; type: cell-based; conditions: 10 μM compound
β3-adrenergic receptors, sequence (P13945 whole entry): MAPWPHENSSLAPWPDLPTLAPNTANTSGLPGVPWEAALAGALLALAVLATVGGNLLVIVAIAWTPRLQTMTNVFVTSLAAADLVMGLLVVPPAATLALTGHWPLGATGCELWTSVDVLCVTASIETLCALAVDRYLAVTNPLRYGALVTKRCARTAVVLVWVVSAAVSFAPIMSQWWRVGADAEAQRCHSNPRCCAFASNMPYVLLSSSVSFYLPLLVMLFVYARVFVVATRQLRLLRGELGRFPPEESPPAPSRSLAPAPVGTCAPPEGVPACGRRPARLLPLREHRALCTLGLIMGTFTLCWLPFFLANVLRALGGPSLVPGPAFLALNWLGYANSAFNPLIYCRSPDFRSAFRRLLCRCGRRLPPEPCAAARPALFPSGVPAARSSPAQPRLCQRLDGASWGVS

[12] = test system: Schaffer collateral-CA1 synapse in rat hippocampus; conditions: 500 nM bath applied 10 minutes prior to threshold TBS; rat hippocampal slices
[13] = test system: Sprague-Dawley rats; test: Morris water maze; type: in vivo, rat
[14] = test system: Sprague-Dawley rats; test: Acquisition of contextual fear conditioning; type: in vivo, rat; conditions: vs vehicle
[15] = test system: rats; test: Amphetamine-induced hyperlocomotion; type: in vivo, rat; conditions: 3–56.6 mg/kg i.p. 30 minutes prior to amphetamine
[16] = target: T1, human M1 receptors; test: Calcium mobilization in hM1 CHO cells; conditions: for Ca release % CCh max: Emax normalized to maximum CCh response; for EC50: read-out: Ca release EC50
[17] = target: T3, human M1 mAChR; test: Calcium mobilization in TET-inducible hM1 TREx CHO cells
[18] = test system: D3 receptors; conditions: ref Lebois et al., 2011; cited from earlier work
[19] = read-out: ERK EC50, TET 50 ng/mL
[20] = read-out: ERK EC50, TET 1 μg/mL
[21] = i.p., treated groups vs controls
[22] = read-out: Ca EC50, TET 10 ng/mL
[23] = read-out: Ca EC50, TET 25 ng/mL
[24] = read-out: Ca EC50, TET 50 ng/mL

Compound | induction of LTD of fEPSP slope ([1]; 30 μM) | effect on sEPSC frequency / interevent interval (IEI) [3] | ERK % CCh max [4] | EC50 [4] | effect on β-arrestin recruitment [5] | ERK % CCh max ([6]; TET 0 ng/mL) | ERK % CCh max ([6]; TET 25 ng/mL) | ERK % CCh max ([6]; TET 50 ng/mL) | ERK % CCh max ([6]; TET 1 μg/mL) | EC50 [6, 19] | EC50 [6, 20] | β-arrestin2-YFP recruitment (confocal) ([7]; TET 50 ng/mL overnight) | β-arrestin2-YFP recruitment (confocal) ([7]; TET 1 μg/mL overnight) | potentiation of threshold TBS LTP (fEPSP slope) [12] | excitatory effect in MSNs (number of spikes per depolarization pulse) ([2]; 30 μM) | reversal of amphetamine-induced hyperlocomotion [15] | Ca release % CCh max [16] | EC50 [16] | Ca % CCh max ([17]; TET 0 ng/mL) | Ca % CCh max ([17]; TET 10 ng/mL) | further results
C[N+](C)(C)CCOC(N)=O [CCh, carbachol, reference compound] | without effect | robust increase in sEPSC frequency |  |  |  |  |  |  |  |  |  |  |  |  |  |  |  |  |  |  | induction of LTD of fEPSP slope ([1]; 50 μM): induced robust LTD; excitatory effect in MSNs (number of spikes per depolarization pulse) ([2]; 10 μM): robust excitatory effect; concentration required for induction of the PFC response [3]: > 50 µM
CCOC(=O)N1CCC(NCCNC(=O)c2ccccc2C)CC1.Cl [VU0357017] | did not induce a significant LTD response | no significant effect on IEI | 37.9 % CCh max | 37 µM | little or no effect on β-arrestin recruitment | 27.4 % CCh max | 50.3 % CCh max | 45.9 % CCh max | 30.3 % CCh max | 35.9 µM | 3.17 µM | no effect on β-arrestin recruitment | did not induce β-arrestin2 recruitment | significant potentiation of fEPSP slope | very weak efficacy in inducing excitatory effects | fails to reverse hyperlocomotion | 41.7 ± 2.37 % CCh max and 41.7 % CCh max | 1.6 µM | 8.24 % CCh max | 7.21 % CCh max | agonist Ca response at M1 [8]: induced a significant response; agonist activity at other receptor subtypes [9]: little activity; agonist Ca response at D4 [10]: very small responses; agonist Ca response at β3 [11]: very small responses; overnight memory retention [13, 21]: did not differ from controls; platform crossing on the probe trial [13, 21]: did not differ from controls; swim path distance from days 4 to 5 [13, 21]: did not differ from controls; acquisition of contextual fear (duration of freezing) ([14]; 0.1, 0.3, 0.56, 1, and 3 mg/kg i.p. 30 min before conditioning): robust improvements in acquisition of contextual fear; Ca % CCh max ([17]; TET 25 ng/mL): 24.5 % CCh max; Ca % CCh max ([17]; TET 50 ng/mL): 60.4 % CCh max; Ca % CCh max ([17]; TET 1 μg/mL): 75.3 % CCh max; EC50 [17, 22]: 16 µM; EC50 [17, 23]: 16 µM; EC50 [17, 24]: 1.6 µM; EC50 ([17]; read-out: Ca EC50, TET 1 μg/mL): 0.69 µM
CCOC(=O)N1CCC(N2CCC[C@@H](NC(=O)c3ccccc3C)C2)CC1 [VU0364572] | induced robust LTD | no significant effect on IEI | 90.5 % CCh max | 10 µM | little or no effect on β-arrestin recruitment | 56.4 % CCh max | 50.6 % CCh max | 52.6 % CCh max | 49.3 % CCh max | 9.44 µM | 3.3 µM | no effect on β-arrestin recruitment | did induce responses | significant potentiation of fEPSP slope | relatively weak excitatory effect | fails to reverse this response | 70.8 % CCh max | 0.89 µM | 44.2 % CCh max | 39.9 % CCh max | EC50 ([6]; read-out: ERK EC50, TET 0 ng/mL): 108 µM; EC50 ([6]; read-out: ERK EC50, TET 25 ng/mL): 9.88 µM; swim distance, day 5 ([13]; 0.1 mg/kg and 10 mg/kg i.p. 30 min prior to first trial, vs vehicle): decreased swim distance; overnight memory retention day 4 to day 5 ([13]; 0.1 mg/kg i.p., vs vehicle): enhanced overnight memory retention; platform crossings during first 30 seconds of probe trial ([13]; 0.1 mg/kg i.p., vs vehicle): increased platform crossings; swim distance, day 4 ([13]; 0.1 mg/kg i.p., vs vehicle): enhancement; acquisition of contextual fear (freezing) ([14]; 0.056, 0.3, and 0.56 mg/kg i.p. 30 min before conditioning): improved acquisition of contextual fear learning; concentration required to induce effects at D3 receptors [18]: greater than 10 μM; inhibition of binding at D3 receptors [18]: 10%; Ca % CCh max ([17]; TET 25 ng/mL): 68.1 % CCh max; Ca % CCh max ([17]; TET 50 ng/mL): 78.1 % CCh max; Ca % CCh max ([17]; TET 1 μg/mL): 86.2 % CCh max; EC50 ([17]; read-out: Ca EC50, TET 0 ng/mL): 30.5 µM; EC50 [17, 22]: 146 µM; EC50 [17, 23]: 2.3 µM; EC50 [17, 24]: 1 µM; EC50 ([17]; read-out: Ca EC50, TET 1 μg/mL): 0.5 µM
